{
  "source": "patent US20090076050A1",
  "about": "“SYNERGISTIC TUMOR-KILLING EFFECT OF RADIATION AND BERBERINE COMBINED TREATMENT IN LUNG CANCER” (CHUNG SHAN MEDICAL U., priority 2007, published 2009)",
  "key": {"A549 cells [1]": {"system": "A549 cells", "test": "cell cycle distribution by propidium iodide flow cytometry", "assay_type": "cell-based, human", "settings": "24 h", "experimental": "Flow cytometry was performed by propidium iodide staining (Roche Molecular Biochemical, Indianapolis, USA) according to the manufacturer's instructions. Untreated and treated cells were washed in PBS and fixed in ice-cold ethanol. Fixed cells were pelleted and resuspended in 500 μl of PBS. Then, the cells were stained with propidium iodide and analyzed for cell cycle distribution by flow cytometry with a FACStar caliber (Becton Dickinson) cell sorter. The percentage of each phase was evaluated by Cell-Quest software of the histograms."}, "A549 cells [2]": {"system": "A549 cells", "test": "acridine orange staining of acidic vesicular organelles (microscopy and FACS)", "assay_type": "cell-based, human", "settings": "for proportion of acridine orange-positive cells: 24 h, IR alone 12.5%", "experimental": "Autophagic cell death has been recognized as programmed cell death type II, it has been detected in a variety of cancer cells treated with radiation or chemotherapy. Therefore, it had been examined whether IR treatment combined with berberine induced autophagic cell death in A549 cells by electron microscopic analysis (FIG. 4A). Cells were harvested by trypsinization, and fixed with 2% glutaraldehyde, 4% paraformaldehyde and 1% tannic acid in 0.1 mol/L cacodylate buffer, pH 7.4, for 25 h. The cells were stained with an osmium-thiocarbohydrazide-osmium (OTO). After staining, the cells were dehydrated in a graded series of 70% to 100% EtOH and then immersed serially with 1:1 hexamethyldisilazane and absolute ethanol. One micrometer thin sections were cut, and the gels were coated with 500 Å of gold in a JEOL Vacuum sputter coater and viewed in a JEOL […] electron microscope with scanning attachment (JEOL, Tokyo, Japan). […] Autophagy is characterized by the development of AVOs, which is measured by vital staining of acridine orange. Acridine orange (Polysciences, Warrington, Pa.) was added to cells at a final concentration of 1 μg/mL for a period of 15 min. Pictures were taken with a fluorescent microscope (Nikon TE-300) equipped with a 490-nm band-pass blue excitation filters, a 500-nm dichroic mirror, and a 515-nm-long pass-barrier filter. To quantitate acidic vesicular organelles, Stained cells were collected for the FACScan (Becton Dickinson, San Jose, Calif.) using CellQuest software (Becton Dickinson). Acridine orange-positive cells with bright red fluorescence were detected among A549 cells 24 h after co-treated with berberine and IR (6 Gy), whereas they were sparse among non-treated cells or irradiated cells (FIG. 4B). […] FIG. 4C)."}, "[3]": {"system": "Lewis lung carcinoma (LLC)", "test": "Lewis lung carcinoma (LLC) tumor xenograft growth in mice", "assay_type": "in vivo, C57BL/6 mice", "settings": "for tumor volume relative to that before the treatment: LLC in C57BL/6 mice, p<0.001", "experimental": "The application of the additive cytotoxicity of IR combined with berberine in cancer treatment was further evidenced in an in vivo Lewis lung carcinoma (LLC) model in mice (Camphausen K, et al. Cancer Res 2001; 61:2207-11). Male C57BL/6 mice aged 4-6 weeks (National Taiwan University Animal Center, Taiwan) were used. To form a tumor xenograft, Lewis lung cells (2×10^6) were injected s.c. into the right hind limb. Animals were randomized into six groups: control, irradiation (IR) alone, berberine (1.0, 2.0 mg/kg) alone, and IR combined with berberine (1.0, 2.0 mg/kg). For tumor irradiation, mice were immobilized in a customized harness that exposed the right hind leg while shielding the remainder of the body by 3.5 cm of lead. Mice were exposed to a single dose of 8 Gy. Berberine was supplemented (1.0, 2.0 mg/kg, i.p.) to animals 1 day before the radiation exposure, and then twice a week for 4 weeks. To obtain tumor growth curves, three orthogonal tumor diameters were measured every 4-day intervals with a vernier caliper, and the mean values were calculated. The animals were killed (n=5 per group) at the indicated time points, and the primary tumor was dissected and examined. Primary tumor growth delay was measured by calipers in two dimensions, and the volumes were calculated according to the formula: tumor volume=(width) 2×length×0.52. LLC cells were injected s.c. into the right thighs of C57BL/6 mice 10 days before the IR therapy. The animals were randomized into six treatment groups: untreated, 8 Gy radiation in one dose, berberine alone (1.0, 2.0 mg/kg i.p., twice weekly), and berberine combined with IR treatment (FIG. 6A). Berberine was supplemented to the indicated groups one day before the IR treatment and continued for 4 weeks. The tumor volume at the primary site of each group was measured before treatment, and the average tumor volume was designated as T0. When the animals were sacrificed at the end of experiment, the xenografts were removed, and the tumor volume was determined and presented as fold of T0. The blood samples were collected for biochemical analysis. […] Berberine at 1.0 and 2.0 mg/kg, as used with IR, has shrunk the tumor volume down to approximately 48% and 22% of that before the treatment (FIG. 6C, p<0.001). Furthermore, immunohistochemistry was performed to detect the level of beclin-1 and bcl-2 proteins in the xenograft. Primary tumors were fixed and then embedded in paraffin. The sections were stained with anti-bcl-2 mouse-monoclonal antibody (1:100, Santa Cruz Biotechnology, Santa Cruz, Calif.) or anti-beclin-1 rabbit polyclonal antiserum (1:50, Santa Cruz Biotechnology, Santa Cruz, Calif.). The sections were then incubated with blocking buffer for 40 min at RT followed by incubation with the primary antibody over night at 4° C. […]"}, "[4]": {"test": "blood biochemical analysis in LLC model mice", "assay_type": "in vivo, C57BL/6 mice", "settings": "all six groups incl. berberine 1.0, 2.0 mg/kg i.p. alone or with IR, end of experiment", "experimental": "(§1) The application of the additive cytotoxicity of IR combined with berberine in cancer treatment was further evidenced in an in vivo Lewis lung carcinoma (LLC) model in mice (Camphausen K, et al. Cancer Res 2001; 61:2207-11). Male C57BL/6 mice aged 4-6 weeks (National Taiwan University Animal Center, Taiwan) were used. To form a tumor xenograft, Lewis lung cells (2×10^6) were injected s.c. into the right hind limb. Animals were randomized into six groups: control, irradiation (IR) alone, berberine (1.0, 2.0 mg/kg) alone, and IR combined with berberine (1.0, 2.0 mg/kg). For tumor irradiation, mice were immobilized in a customized harness that exposed the right hind leg while shielding the remainder of the body by 3.5 cm of lead. Mice were exposed to a single dose of 8 Gy. […] To obtain tumor growth curves, three orthogonal tumor diameters were measured every 4-day intervals with a vernier caliper, and the mean values were calculated. […] Primary tumor growth delay was measured by calipers in two dimensions, and the volumes were calculated according to the formula: tumor volume=(width) 2×length×0.52. […] The tumor volume at the primary site of each group was measured before treatment, and the average tumor volume was designated as T0. When the animals were sacrificed at the end of experiment, the xenografts were removed, and the tumor volume was determined and presented as fold of T0. […]"}, "bcl-2": {"system": "bcl-2", "test": "immunohistochemistry of bcl-2 in xenograft", "assay_type": "in vivo, C57BL/6 mice", "experimental": "as §1"}, "[5]": {"settings": "IR (6 Gy) + 5.0 μM berberine, listed as Ber"}},
  "data": [
    {"smiles": "COc1ccc2cc3[n+](cc2c1OC)CCc1cc2c(cc1-3)OCO2", "note": "[berberine, Berberine]", "values": [
      {"measurement": "G0/G1", "setting": "A549 cells [1]; IR (6 Gy) + 2.5 μM berberine", "result": "45.5 ± 4.96", "unit": "%"},
      {"measurement": "G2/M", "setting": "A549 cells [1]; IR (6 Gy) + 2.5 μM berberine", "result": 28.8, "unit": "%"},
      {"measurement": "S", "setting": "A549 cells [1]; IR (6 Gy) + 2.5 μM berberine", "result": "20.1 ± 2.26", "unit": "%"},
      {"measurement": "sub G1", "setting": "A549 cells [1]; IR (6 Gy) + 2.5 μM berberine", "result": "5.6 ± 0.18", "unit": "%"},
      {"measurement": "G2/M", "setting": "A549 cells [1]; IR (6 Gy) + 2.5 μM berberine, listed as Ber", "result": "28.8 ± 2.91", "unit": "%"},
      {"measurement": "G0/G1", "setting": "A549 cells [1]; IR (6 Gy) + 5.0 μM berberine", "result": "36.2 ± 4.15", "unit": "%"},
      {"measurement": "G2/M", "setting": "A549 cells [1]; IR (6 Gy) + 5.0 μM berberine", "result": 40.5, "unit": "%"},
      {"measurement": "S", "setting": "A549 cells [1]; IR (6 Gy) + 5.0 μM berberine", "result": "14.8 ± 2.05", "unit": "%"},
      {"measurement": "sub G1", "setting": "A549 cells [1]; IR (6 Gy) + 5.0 μM berberine", "result": 8.5, "unit": "%"},
      {"measurement": "G2/M", "setting": "A549 cells [1]; [5]", "result": "40.5 ± 4.55", "unit": "%"},
      {"measurement": "sub G1", "setting": "A549 cells [1]; [5]", "result": "8.5 ± 0.22", "unit": "%"},
      {"measurement": "G0/G1", "setting": "A549 cells [1]; IR (6 Gy) + 10 μM berberine", "result": "33.9 ± 4.01", "unit": "%"},
      {"measurement": "G2/M", "setting": "A549 cells [1]; IR (6 Gy) + 10 μM berberine", "result": 41.7, "unit": "%"},
      {"measurement": "S", "setting": "A549 cells [1]; IR (6 Gy) + 10 μM berberine", "result": "15.5 ± 1.81", "unit": "%"},
      {"measurement": "sub G1", "setting": "A549 cells [1]; IR (6 Gy) + 10 μM berberine", "result": "8.9 ± 0.25", "unit": "%"},
      {"measurement": "G2/M", "setting": "A549 cells [1]; IR (6 Gy) + 10 μM berberine, listed as Ber", "result": "41.7 ± 3.91", "unit": "%"},
      {"measurement": "G0/G1", "setting": "A549 cells [1]; IR (6 Gy) + 20 μM berberine", "result": "37.2 ± 4.27", "unit": "%"},
      {"measurement": "G2/M", "setting": "A549 cells [1]; IR (6 Gy) + 20 μM berberine", "result": "30.5 ± 3.18", "unit": "%"},
      {"measurement": "S", "setting": "A549 cells [1]; IR (6 Gy) + 20 μM berberine", "result": "16.7 ± 2.33", "unit": "%"},
      {"measurement": "sub G1", "setting": "A549 cells [1]; IR (6 Gy) + 20 μM berberine", "result": "15.6 ± 1.26", "unit": "%"},
      {"measurement": "proportion of acridine orange-positive cells", "setting": "A549 cells [2]; 6 Gy irradiation combined with 5.0 μM berberine", "result": 50.3, "unit": "%"},
      {"measurement": "proportion of acridine orange-positive cells", "setting": "A549 cells [2]; 6 Gy irradiation combined with 10 μM berberine", "result": 62.6, "unit": "%"},
      {"measurement": "acridine orange-positive cells with bright red fluorescence (microscopy)", "setting": "A549 cells [2]; 24 h after co-treatment with berberine and IR (6 Gy)", "result": "detected"},
      {"measurement": "tumor volume relative to that before the treatment", "setting": "[3]; berberine 1.0 mg/kg i.p. twice weekly for 4 weeks with IR 8 Gy", "result": "approximately 48%"},
      {"measurement": "tumor volume relative to that before the treatment", "setting": "[3]; berberine 2.0 mg/kg i.p. twice weekly for 4 weeks with IR 8 Gy", "result": "~22", "unit": "%"},
      {"measurement": "tumor size in tumor growth curves", "setting": "[3]; berberine (1.0, 2.0 mg/kg) combined with IR 8 Gy, LLC in mice (FIG. 6B)", "result": "considerable reduced size"},
      {"measurement": "growth of the xenograft", "setting": "[3]; berberine alone (1.0, 2.0 mg/kg i.p., twice weekly), LLC in mice", "result": "slowed down"},
      {"measurement": "serum levels of AST, ALT, urea nitrogen, creatinine, complete blood cell counts, triglyceride and total cholesterol", "setting": "[4]", "result": "no difference among groups"},
      {"measurement": "bcl-2 protein expression in xenograft", "setting": "bcl-2; berberine alone groups", "result": "reduced"},
      {"measurement": "bcl-2 protein expression in xenograft", "setting": "bcl-2; co-treatment groups (berberine + IR)", "result": "reduced"}
    ]}
  ]
}
